Laboratory results: patent US20230053688A1, “METHODS TO ALTER LATENCY IN EBV+ MALIGNANCIES” (Cornell University, priority 2020, published 2023)
Structures can show the parent of a compound that is named as a salt. Where two headings read alike, the source gives them in different places.

Test system: LMP1 expression in Kem I cells
Assay: microbe, parasite or virus in culture
Type: cell-based, EBV
Settings: for fold induction at 2.5 µM / fold induction at 1 µM: human gammaherpesvirus 4, 48 h; for Average LMP1 Fold Increase / Replicate 1-LMP1 Fold Increase / Replicate 2-LMP1 Fold Increase: Kem I cells, 48 hours
[1] = read-out: Average LMP1 Fold Increase, Kem I cells, 2.5 uM, 48 hours, average of replicates 1 and 2
[2] = read-out: Replicate 1-LMP1 Fold Increase, Kem I cells, 2.5 uM, 48 hours, fold change in LMP1 transcript vs vehicle
[3] = read-out: Replicate 2-LMP1 Fold Increase, Kem I cells, 2.5 uM, 48 hours, fold change in LMP1 transcript vs vehicle
[4] = read-out: Average LMP1 Fold Increase, Kem I cells, dose 2.5 uM, 48 hours, LMP1 transcript by in-well qRT-PCR, average of the two replicates
[5] = read-out: Replicate 1-LMP1 Fold Increase, Kem I cells, dose 2.5 uM, 48 hours, LMP1 transcript by in-well qRT-PCR, screen replicate 1
[6] = read-out: Replicate 2-LMP1 Fold Increase, Kem I cells, dose 2.5 uM, 48 hours, LMP1 transcript by in-well qRT-PCR, screen replicate 2
[7] = 2.5 uM, average of replicates 1 and 2
[8] = 2.5 uM, fold change in LMP1 transcript vs vehicle
[9] = dose 2.5 uM, LMP1 transcript by in-well qRT-PCR, average of the two replicates
[10] = dose 2.5 uM, LMP1 transcript by in-well qRT-PCR, screen replicate 1
[11] = dose 2.5 uM, LMP1 transcript by in-well qRT-PCR, screen replicate 2

| Compound | fold induction at 2.5 µM [1] | fold induction at 2.5 µM [2] | fold induction at 2.5 µM [3] | Average LMP1 Fold Increase [7] | Replicate 1-LMP1 Fold Increase [8] | Replicate 2-LMP1 Fold Increase [8] | further results |
| --- | --- | --- | --- | --- | --- | --- | --- |
| COc1cc(N2CCC(N3CCN(C)CC3)CC2)ccc1Nc1ncc(Cl)c(Nc2ccccc2P(C)(C)=O)n1 [AP26113] | 0.92 | 1.07 | 0.77 | – | – | – | – |
| CCC(COC(=O)c1cc(OC)c(OC)c(OC)c1)(c1ccccc1)N(C)C (stereo not shown) [Trimebutine] | – | – | – | – | – | – | fold induction at 2.5 µM [4]: 1.37; fold induction at 2.5 µM [5]: 2.11; fold induction at 2.5 µM [6]: 0.63 |
| O=C1CC[C@@]2(O)[C@H]3Cc4ccc(O)c5c4[C@@]2(CCN3CC2CC2)[C@H]1O5 [Naltrexone HCl] | 0.27 | 0.34 | 0.19 | – | – | – | – |
| COc1cccc(C=NCCN=Cc2cccc(OC)c2[O-])c1[O-].[Cl-].[Mn+3] [EUK 134] | – | – | – | 0.90 | 0.85 | 0.95 | – |
| C=C1C(=O)O[C@H]2[C@H]1CC/C(C)=C/CC[C@@]1(C)O[C@@H]21 [(−)-Parthenolide] | – | – | – | 0.57 | 0.26 | 0.87 | – |
| Oc1cc(O)cc(/C=C/c2ccc(O)c(O)c2)c1 [Piceatannol] | 0.75 | 0.83 | 0.66 | – | – | – | – |
| Nc1nc(CC(=O)Nc2ccc(CCNC[C@H](O)c3ccccc3)cc2)cs1 [Mirabegron] | 0.75 | 0.74 | 0.76 | – | – | – | – |
| C[C@]1(c2nc3c(C(N)=O)cccc3[nH]2)CCCN1 [Veliparib (ABT-888)] | – | – | – | – | – | – | Average LMP1 Fold Increase [9]: 1.08 fold; Replicate 1-LMP1 Fold Increase [10]: 0.71 fold; Replicate 2-LMP1 Fold Increase [11]: 1.45 fold |
| O=C(O)c1cc2cccc([N+](=O)[O-])c2[nH]1 [CRT0044876] | – | – | – | 0.44 | 0.55 | 0.33 | – |
| O=C(O)CNC(=O)c1c(O)c2ccccc2n(Cc2ccccc2)c1=O [IOX2] | – | – | – | 0.39 | 0.40 | 0.38 | – |
| Cl.O=C(O)Cc1cccc(OCCCN(Cc2cccc(C(F)(F)F)c2Cl)CC(c2ccccc2)c2ccccc2)c1 [GW3965 HCl] | – | – | – | 0.27 | 0.20 | 0.35 | – |
| CCCc1nc2c(C)cc(-c3nc4ccccc4n3C)cc2n1Cc1ccc(-c2ccccc2C(=O)O)cc1 [Telmisartan] | – | – | – | – | – | – | fold induction at 2.5 µM [4]: 0.37; fold induction at 2.5 µM [5]: 0.29; fold induction at 2.5 µM [6]: 0.45 |
| CC(C)(C)Cn1c(N)nc2ccc(-c3[nH]c(C(C)(C)C)nc3-c3ccc(F)cc3)nc21 [LY2228820] | – | – | – | 0.60 | 0.63 | 0.56 | – |
| O=C(N/N=C/c1ccc(O)c(O)c1)c1cc2ccccc2cc1O [Dynasore] | 0.77 | 0.64 | 0.89 | – | – | – | – |
| C[C@H](Cn1cnc2c(N)ncnc21)OCP(=O)(O)O [Tenofovir] | – | – | – | – | – | – | Average LMP1 Fold Increase [9]: 0.18 fold; Replicate 1-LMP1 Fold Increase [10]: 0.18 fold; Replicate 2-LMP1 Fold Increase [11]: 0.19 fold |
| OC[C@H]1O[C@@H](c2ccc(Cl)c(Cc3ccc(O[C@H]4CCOC4)cc3)c2)[C@H](O)[C@@H](O)[C@@H]1O [Empagliflozin (BI 10773)] | – | – | – | 0.58 | 0.67 | 0.50 | – |
| COCCOc1ccc2c(c1)ncn2-c1ccc2cccc(N3CCC(N)CC3)c2n1 [CP-673451] | 0.49 | 0.52 | 0.45 | – | – | – | – |
| CC1(C)CCC(CN2CCN(c3ccc(C(=O)NS(=O)(=O)c4ccc(NCC5CCOCC5)c([N+](=O)[O-])c4)c(Oc4cnc5[nH]ccc5c4)c3)CC2)=C(c2ccc(Cl)cc2)C1 [ABT-199 (GDC-0199)] | – | – | – | 0.75 | 0.51 | 0.98 | – |
| CCOC(=O)c1cncn1[C@H](C)c1ccccc1 [Etomidate] | 0.5 | 0.56 | 0.44 | – | – | – | – |
| C[C@]12C=CC(=O)N[C@@H]1CC[C@@H]1[C@@H]2CC[C@]2(C)[C@@H](C(=O)Nc3cc(C(F)(F)F)ccc3C(F)(F)F)CC[C@@H]12 [Dutasteride] | 0.39 | 0.38 | 0.41 | – | – | – | – |
| C[C@](O)(COc1ccc(C#N)cc1)C(=O)Nc1ccc(C#N)c(C(F)(F)F)c1 [MK-2866 (GTx-024)] | – | – | – | 0.64 | 0.72 | 0.56 | – |

| Compound | fold induction at 2.5 µM [1] | fold induction at 2.5 µM [2] | fold induction at 2.5 µM [3] | Average LMP1 Fold Increase [7] | Replicate 1-LMP1 Fold Increase [8] | Replicate 2-LMP1 Fold Increase [8] | further results |
| --- | --- | --- | --- | --- | --- | --- | --- |
| CC(=O)c1cc([N+](=O)[O-])c(Sc2ccc(F)cc2F)s1 [P22077] | – | – | – | 0.25 | 0.20 | 0.29 | – |
| CC(C)NCC(O)COc1ccc(COCCOC(C)C)cc1 (stereo not shown) [Bisoprolol fumarate] | 1.07 | 0.41 | 1.73 | – | – | – | – |
| O=C(Nc1ccccc1Br)N[C@@H]1CCN(c2ccc(C(F)(F)F)cn2)C1 [SB705498] | – | – | – | 0.43 | 0.38 | 0.48 | – |
| COc1ccc2c(c1)c(CC(=O)N1CCOCC1)c(C)n2C(=O)c1ccc(Cl)cc1 [BML-190] | – | – | – | 0.77 | 1.01 | 0.53 | – |
| COc1cc(OC)c(/C=C/S(=O)(=O)Cc2ccc(OC)c(NCC(=O)O)c2)c(OC)c1 [Rigosertib (ON-01910)] | – | – | – | 0.57 | 0.69 | 0.46 | – |
| N#C[C@@H]1CCCN1C(=O)CNC12CC3CC(CC(O)(C3)C1)C2 [Vildagliptin (LAF-237)] | – | – | – | – | – | – | Average LMP1 Fold Increase [9]: 0.72 fold; Replicate 1-LMP1 Fold Increase [10]: 0.58 fold; Replicate 2-LMP1 Fold Increase [11]: 0.87 fold |
| CCNC(=O)[C@H]1O[C@@H](n2cnc3c(N)nc(NCCc4ccc(CCC(=O)O)cc4)nc32)[C@H](O)[C@@H]1O [CGS 21680 HCl] | 0.7 | 0.72 | 0.68 | – | – | – | – |
| COc1cc2c(cc1OC)[C@@H]1Cc3ccc(OC)c(OC)c3CN1CC2 [Rotundine] | 0.28 | 0.3 | 0.27 | – | – | – | – |
| C[C@H](NC(=O)[C@@H](O)c1cc(F)cc(F)c1)C(=O)N[C@@H]1C(=O)N(C)c2ccccc2-c2ccccc21 [LY411575] | – | – | – | 0.36 | 0.41 | 0.31 | – |
| BAM7 | – | – | – | 0.93 | 0.51 | 1.35 | – |
| CCc1c2c(nc3ccc(OC(=O)N4CCC(N5CCCCC5)CC4)cc13)-c1cc3c(c(=O)n1C2)COC(=O)[C@]3(O)CC [Irinotecan] | – | – | – | 0.59 | – | – | – |
| NC(=O)c1cccc(-c2cc(Nc3ccc(OC(F)(F)F)cc3)ncn2)c1 [GNF-2] | – | – | – | 1.06 | 0.21 | 1.91 | – |
| C=CCn1c(=O)c2cnc(Nc3ccc(N4CCN(C)CC4)cc3)nc2n1-c1cccc(C(C)(C)O)n1 [MK-1775] | 5.22 | 6.01 | 4.43 | – | – | – | – |
| CCOC(=O)[C@H](CCc1ccccc1)N[C@@H](C)C(=O)N1C(=O)N(C)C[C@H]1C(=O)O [Imidapril HCl] | 0.66 | 0.88 | 0.44 | – | – | – | – |
| CC(=O)O[C@]1(C(C)=O)CC[C@H]2[C@@H]3C=C(Cl)C4=CC(=O)[C@@H]5C[C@@H]5[C@]4(C)[C@H]3CC[C@@]21C [Cyproterone Acetate] | 0.26 | 0.27 | 0.24 | – | – | – | – |
| CC1=C(/C=C/C(C)=C/C=C/C(C)=C\C(=O)O)C(C)(C)CCC1 [Isotretinoin] | 1.76 | 1.42 | 2.1 | – | – | – | – |
| Cc1cc2c(C(C)C)c(O)c(O)c(C=O)c2c(O)c1-c1c(C)cc2c(C(C)C)c(O)c(O)c(C=O)c2c1O [AT101] | 1.04 | 0.51 | 1.58 | – | – | – | – |
| C#Cc1cccc(Nc2ncnc3cc4c(cc23)OCCOCCOCCO4)c1 [Icotinib] | 8.04 | 15.7 | 0.34 | – | – | – | – |
| Cn1cc(C2=C(c3cn(C4CCN(Cc5ccccn5)CC4)c4ccccc34)C(=O)NC2=O)c2ccccc21 [Enzastaurin (LY317615)] | – | – | – | 25.14 | 0.48 | 49.80 | – |
| Cn1c(=O)n(-c2ccc(C(C)(C)C#N)cc2)c2c3cc(-c4cnc5ccccc5c4)ccc3ncc21 [BEZ 235] | – | – | – | – | – | – | fold induction at 1 µM (read-out: Average LMP1 Fold Increase, Kem I cells, 1 uM, 48 hours, average of replicates 1 and 2): 13.3; fold induction at 1 µM (read-out: Replicate 1-LMP1 Fold Increase, Kem I cells, 1 uM, 48 hours, fold change in LMP1 transcript vs vehicle): 17.4; fold induction at 1 µM (read-out: Replicate 2-LMP1 Fold Increase, Kem I cells, 1 uM, 48 hours, fold change in LMP1 transcript vs vehicle): 9.2 |
